The record followed here is patent US20240116985A1, “STAPLED PEPTIDES AND METHODS THEREOF” (priority 2020, published 2024).

The target of the experiment is T1, full-length beta-Catenin (Uniprot ID P35222) (Homo sapiens, UniProt P35222).
T1 construct: 10 nM full-length beta-Catenin (Uniprot ID P35222)
T1 sequence (P35222 1-781): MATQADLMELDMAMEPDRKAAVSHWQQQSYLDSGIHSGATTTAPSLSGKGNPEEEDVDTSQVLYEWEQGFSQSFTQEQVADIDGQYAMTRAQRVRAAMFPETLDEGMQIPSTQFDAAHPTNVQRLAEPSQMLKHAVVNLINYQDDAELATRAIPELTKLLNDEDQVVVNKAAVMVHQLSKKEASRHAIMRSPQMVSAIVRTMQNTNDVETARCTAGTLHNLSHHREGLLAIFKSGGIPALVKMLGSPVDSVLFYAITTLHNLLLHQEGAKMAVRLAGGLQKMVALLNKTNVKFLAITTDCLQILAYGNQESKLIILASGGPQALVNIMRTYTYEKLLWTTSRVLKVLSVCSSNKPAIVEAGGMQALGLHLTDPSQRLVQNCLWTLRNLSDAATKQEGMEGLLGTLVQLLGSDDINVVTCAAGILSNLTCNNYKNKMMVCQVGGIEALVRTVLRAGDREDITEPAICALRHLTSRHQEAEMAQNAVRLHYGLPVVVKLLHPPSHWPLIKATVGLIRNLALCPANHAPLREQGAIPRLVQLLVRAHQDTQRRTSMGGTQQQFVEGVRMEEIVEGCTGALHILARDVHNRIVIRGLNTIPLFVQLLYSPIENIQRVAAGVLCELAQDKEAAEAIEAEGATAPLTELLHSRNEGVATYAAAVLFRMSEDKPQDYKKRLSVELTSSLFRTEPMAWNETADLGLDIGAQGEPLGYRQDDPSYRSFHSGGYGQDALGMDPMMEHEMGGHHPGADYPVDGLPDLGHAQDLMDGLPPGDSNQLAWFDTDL
In words: Fluorescence polarization IC50 (beta-catenin / 5FAM-TCF4 10-53 competition). The experiment is classed as binding. The following applies: fluorescence polarization; read-out: beta-Catenin FP IC50.

On to `CC(=O)N1CCC[C@]12CC=CCCCC1(CCCC=CCCCOC(=O)N3CC[C@@](C(=O)N[C@@H](Cc4ccsc4)C(=O)N[C@@H](Cc4csc5ccccc45)C(=O)N[C@@H](CCC(N)=O)C(N)=O)(C3)NC(=O)[C@H](CC(N)=O)NC(=O)[C@H](Cc3ccccc3)NC(=O)[C@H](C)NC(=O)[C@H](C)NC(=O)[C@H](CC(=O)O)NC(=O)[C@H](CC(=O)O)NC1=O)NC(=O)[C@H](CC(C)(C)C)NC(=O)[C@H](Cn1cc(CC(C)(C)C(=O)O)nn1)NC2=O` (stereo partly drawn) [I-2329, Ac-PL3-[CH2CMe2CO2H]TriAzDap-Npg-B5-Asp-Asp-Ala-Ala-Phe-Asn-PyrS2-3Thi-BztA-Gln-NH2], for which the IC50 amounted to 3800 nM.
Take `CC(=O)N1CCC[C@]12CC=CCCCC1(CCCC=CCCCOC(=O)N3CC[C@@](C(=O)N[C@@H](Cc4ccsc4)C(=O)N[C@@H](Cc4csc5ccccc45)C(=O)N[C@@H](CCC(N)=O)C(N)=O)(C3)NC(=O)[C@H](CC(N)=O)NC(=O)[C@H](Cc3ccccc3)NC(=O)[C@H](C)NC(=O)[C@H](C)NC(=O)[C@H](CC(=O)O)NC(=O)[C@H](CC(=O)O)NC1=O)NC(=O)[C@H](CC(C)(C)C)NC(=O)[C@H](Cn1cc(C(C)(C)C(=O)O)nn1)NC2=O` (stereo partly drawn) [I-2330, Ac-PL3-[CMe2CO2H]TriAzDap-Npg-B5-Asp-Asp-Ala-Ala-Phe-Asn-PyrS2-3Thi-BztA-Gln-NH2]: the IC50 was 3860 nM.
On to `CC(=O)N1CCC[C@]12CC=CCCCC1(CCCC=CCCCOC(=O)N3CC[C@@](C(=O)N[C@@H](Cc4ccsc4)C(=O)N[C@@H](Cc4csc5ccccc45)C(=O)N[C@@H](C)C(N)=O)(C3)NC(=O)[C@H]([C@@H](C)O)NC(=O)[C@H](Cc3ccccc3)NC(=O)[C@H](C)NC(=O)[C@H](C)NC(=O)[C@H]([C@@H](C)O)NC(=O)[C@H](CC(N)=O)NC1=O)NC(=O)[C@H](CC(C)(C)C)NC(=O)[C@H](CC(=O)O)NC2=O` (stereo partly drawn) [I-2334, Ac-PL3-Asp-Npg-B5-Asn-Thr-Ala-Ala-Phe-Thr-PyrS2-3Thi-BztA-Ala-NH2], for which the IC50 is 656 nM.
Consider `CC(=O)N1CCC[C@]12CC=CCCCC1(CCCC=CCCCOC(=O)N3CC[C@@](C(=O)N[C@@H](Cc4ccsc4)C(=O)N[C@@H](Cc4csc5ccccc45)C(=O)N[C@@H](CCC(N)=O)C(N)=O)(C3)NC(=O)[C@H](CC(N)=O)NC(=O)[C@H](Cc3ccccc3)NC(=O)[C@H](C)NC(=O)[C@H](C)NC(=O)[C@H](Cc3cccc(C(=O)O)c3)NC(=O)[C@H](CC(N)=O)NC1=O)NC(=O)[C@H](CC(C)(C)C)NC(=O)[C@H](CC(=O)O)NC2=O` (stereo partly drawn) [I-2335, Ac-PL3-Asp-Npg-B5-Asn-3COOHF-Ala-Ala-Phe-Asn-PyrS2-3Thi-BztA-Gln-NH2], for which the half-inhibitory concentration (IC50) is 7 nM.
In the case of `CC(=O)N1CCC[C@]12CC=CCCCC1(CCCC=CCCCOC(=O)N3CC[C@@](C(=O)N[C@@H](Cc4ccsc4)C(=O)N[C@@H](Cc4csc5ccccc45)C(=O)N[C@@H](Cc4c[nH]cn4)C(N)=O)(C3)NC(=O)[C@H]([C@@H](C)O)NC(=O)[C@H](Cc3ccccc3)NC(=O)[C@H](C)NC(=O)[C@H](C)NC(=O)[C@H]([C@@H](C)O)NC(=O)[C@H](CC(N)=O)NC1=O)NC(=O)[C@H](CC(C)(C)C)NC(=O)[C@H](CC(=O)O)NC2=O` (stereo partly drawn) [I-2337, Ac-PL3-Asp-Npg-B5-Asn-Thr-Ala-Ala-Phe-Thr-PyrS2-3Thi-BztA-His-NH2] it was 311 nM; in that of `CC(=O)N1CCC[C@]12CC=CCCCC1(CCCC=CCCCOC(=O)N3CC[C@@](C(=O)N[C@@H](Cc4ccsc4)C(=O)N[C@@H](Cc4csc5ccccc45)C(=O)N[C@@H](CCC(N)=O)C(N)=O)(C3)NC(=O)[C@H](CC(N)=O)NC(=O)[C@H](Cc3ccccc3)NC(=O)C(C)(C)NC(=O)[C@H](C)NC(=O)[C@H]([C@@H](C)O)NC(=O)[C@H](CC(N)=O)NC1=O)NC(=O)[C@H](CC(C)(C)C)NC(=O)[C@H](CC(=O)O)NC2=O` (stereo partly drawn) [I-2339, Ac-PL3-Asp-Npg-B5-Asn-Thr-Ala-Aib-Phe-Asn-PyrS2-3Thi-BztA-Gln-NH2], 2820 nM.
With `CC(=O)N1CCC[C@]12CC=CCCCC1(CCCC=CCCCOC(=O)N3CC[C@@](C(=O)N[C@@H](Cc4ccccc4)C(=O)N[C@@H](Cc4csc5ccccc45)C(=O)N[C@@H](CCC(N)=O)C(N)=O)(C3)NC(=O)[C@H](CC(C)C)NC(=O)[C@H](Cc3ccccc3)NC(=O)[C@H](C)NC(=O)[C@H](CCCCNC(C)C)NC(=O)[C@H](Cc3cccc(C(N)=O)c3)NC(=O)[C@H](CC(=O)O)NC1=O)NC(=O)[C@H](CC1CCCCC1)NC(=O)[C@H](CC(N)=O)NC2=O` (stereo partly drawn) [I-2342, Ac-PL3-Asn-Cha-B5-Asp-3cbmf-iPrLys-Ala-Phe-Leu-PyrS2-Phe-BztA-Gln-NH2], the IC50 came out at 2730 nM.
As for `CC(=O)N1CCC[C@]12CC=CCCCC1(CCCC=CCCCOC(=O)N3CC[C@@](C(=O)N[C@@H](Cc4ccccc4)C(=O)N[C@@H](Cc4csc5ccccc45)C(=O)N[C@@H](CCC(N)=O)C(N)=O)(C3)NC(=O)[C@H](CC(C)C)NC(=O)[C@H](Cc3ccccc3)NC(=O)[C@H](C)NC(=O)[C@H](CCCCNC(C)C)NC(=O)[C@H](CCO)NC(=O)[C@H](CC(=O)O)NC1=O)NC(=O)[C@H](CC1CCCCC1)NC(=O)[C@H](CC(N)=O)NC2=O` (stereo partly drawn) [I-2344, Ac-PL3-Asn-Cha-B5-Asp-Hse-iPrLys-Ala-Phe-Leu-PyrS2-Phe-BztA-Gln-NH2], the concentration for half-maximal inhibition (IC50) stood at 586 nM.
For `CC(=O)N1CCC[C@]12CC=CCCCC1(CCCC=CCCCOC(=O)N3CC[C@@](C(=O)N[C@@H](Cc4ccccc4)C(=O)N[C@@H](Cc4csc5ccccc45)C(=O)N[C@@H](CCC(N)=O)C(N)=O)(C3)NC(=O)[C@H](CC(C)C)NC(=O)[C@H](Cc3ccccc3)NC(=O)[C@H](C)NC(=O)[C@H](CCCCNC(C)C)NC(=O)[C@H](CCO)NC(=O)[C@H](CC(=O)O)NC1=O)NC(=O)[C@H](CC1CCCCC1)NC(=O)[C@H](CC(N)=O)NC2=O` (stereo partly drawn) [I-2345, Ac-PL3-Asn-Cha-B5-Asp-Hse-iPrLys-Ala-Phe-Leu-PyrS2-Phe-BztA-Gln-NH2], the IC50 amounted to 1270 nM.
In the case of `CC(=O)N1CCC[C@]12CC=CCCCC1(CCCC=CCCCOC(=O)N3CC[C@@](C(=O)N[C@@H](Cc4ccccc4)C(=O)N[C@@H](Cc4csc5ccccc45)C(=O)N[C@@H](CCC(N)=O)C(N)=O)(C3)NC(=O)[C@H](CC(C)C)NC(=O)[C@H](Cc3ccccc3)NC(=O)[C@H](C)NC(=O)[C@H](CCCCNC(C)C)NC(=O)[C@H](CCCCN)NC(=O)[C@H](CC(=O)O)NC1=O)NC(=O)[C@H](CC1CCCCC1)NC(=O)[C@H](CC(N)=O)NC2=O` (stereo partly drawn) [I-2346, Ac-PL3-Asn-Cha-B5-Asp-Lys-iPrLys-Ala-Phe-Leu-PyrS2-Phe-BztA-Gln-NH2], the IC50 turned out to be 422 nM.
With `CC(=O)N1CCC[C@]12CC=CCCCC1(CCCC=CCCCOC(=O)N3CC[C@@](C(=O)N[C@@H](Cc4ccccc4)C(=O)N[C@@H](Cc4csc5ccccc45)C(=O)N[C@@H](CCC(N)=O)C(N)=O)(C3)NC(=O)[C@H](CC(C)C)NC(=O)[C@H](Cc3ccccc3)NC(=O)[C@H](C)NC(=O)[C@H](CCCCNC(C)C)NC(=O)[C@H](CCCCN)NC(=O)[C@H](CC(=O)O)NC1=O)NC(=O)[C@H](CC1CCCCC1)NC(=O)[C@H](CC(N)=O)NC2=O` (stereo partly drawn) [I-2347, Ac-PL3-Asn-Cha-B5-Asp-Lys-iPrLys-Ala-Phe-Leu-PyrS2-Phe-BztA-Gln-NH2], the IC50 was found to be 5630 nM.

For orientation: IC50 means the concentration at which inhibition is half-maximal.
